Experimental data from EP4644383A1 (Jiangsu Yahong Meditech Co., Ltd., priority 2022, dated 2024).

Assays:
FGFR1 = biological target: T1, FGFR1 (Homo sapiens, UniProt P11362); assay: FGFR1 kinase activity inhibition assay (LanthaScreen TR-FRET); assay type: biochemical; details: FGFR1 kinase, TR-FRET; read-out: IC50 (nM) FGFR1
T1 construct: cytoplasmic domain [398-822 (terminal) amino acids]; purchased Carna 08-133
Procedure, shortened: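 Emission ratio 520 nm/495 nm by TR-FRET after stopping reaction with 10 mM EDTA and 60 min incubation at 22°C. Inhibition normalized between no-enzyme (min) and DMSO (max) controls, then fitted to a four-parameter curve (Top, Bottom, HillSlope).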

Ba/F3-BCR-FGFR1 cells = assay: Inhibition of proliferation activity of Ba/F3-BCR-FGFR1 cells (CellTiter-Glo); assay type: cell-based; details: Ba/F3-BCR-FGFR1 cells, 72 hours, CTG; read-out: IC50 (nM) Ba/F3-BCR-FGFR1
Protocol: (§1) The present experiment used CellTiter-Glo® Luminescent Cell Viability Assay (Promega: G7573) kit, which was a homogeneous cell viability detection method and determined the cell viability of cultured cells by quantifying ATP. • ① Ba/F3-BCR-FGFR1 or Ba/F3-FGFR3-BAIAP2L1 cells were cultured in 1640 complete medium (Gibco: 11879020) (10% FBS (Gibco: 10091-148)+1% Pen Strep (Gibco: 15140122)) under the condition of 37°C and 5% CO2. • (2) The cells in logarithmic growth phase were harvested and counted using a […]. The trypan blue exclusion method was used to detect cell viability to ensure the cell viability was above 90%. • ③ The cell density was adjusted using 1640 complete medium, and then, the cells were seeded into a 96-well cell culture plate at 90 µL/well with a total of 2000 cells. • ④ A 10-fold drug solution was prepared starting from a maximum drug concentration of 10 µM and 4-fold serially diluted into10 concentrations. Then, 10 µL of each of the serially diluted compounds was transferred to the corresponding experimental wells of a 96-well cell plate, with two replicates for each drug concentration. • ⑤ The 96-well plate with the cells that had been treated with the drugs was placed under the condition of 37°C and 5% CO2 to be further cultured for 72 hours, and then analyzed by CTG. • ⑥ The CTG reagent was melted and the cell plate was equilibrated to room temperature for 30 minutes. • ⑦ 50 µL of the CTG solution was added to each well. • ⑧ The cell plate was shaken on an orbital shaker for 5 minutes to lyse the cells. • ⑨ The cell plate was placed at room temperature for 20 minutes to stabilize the luminescence signal. The luminescence values were read to collect the data. • ⑩ The data were analyzed using XLFit excel plugin version 5.5.0.5, and fitted with non-linear S-curve regression to obtain the dose-response curves and thus calculate the IC50 values. Y = Bottom + (Top-Bottom)/((1+(IC50/X))^(∧) HillSlope [formula]
(§2) "Top" refers to the maximum response, "Bottom" refers to the minimum response, and "HillSlope" refers to the slope of the curve.
(§3) "Max" represents the average value of the cell control+DMSO, and "Min" represents the average value of the medium control+DMSO.

FGFR3 = biological target: T2, FGFR3 (Homo sapiens, UniProt P22607); assay: FGFR3 kinase activity inhibition assay (LanthaScreen TR-FRET); assay type: biochemical; details: for IC50: FGFR3 kinase, TR-FRET, read-out: IC50 (nM) FGFR3; for Selectivity (X) FGFR1/FGFR3: ratio of IC50 FGFR1/FGFR3, selectivity towards FGFR3
T2 construct: FGFR3's cytoplasmic domain [436-806 (terminal) amino acids]; purchased Carna 08-135
T2 sequence (P22607 436-806): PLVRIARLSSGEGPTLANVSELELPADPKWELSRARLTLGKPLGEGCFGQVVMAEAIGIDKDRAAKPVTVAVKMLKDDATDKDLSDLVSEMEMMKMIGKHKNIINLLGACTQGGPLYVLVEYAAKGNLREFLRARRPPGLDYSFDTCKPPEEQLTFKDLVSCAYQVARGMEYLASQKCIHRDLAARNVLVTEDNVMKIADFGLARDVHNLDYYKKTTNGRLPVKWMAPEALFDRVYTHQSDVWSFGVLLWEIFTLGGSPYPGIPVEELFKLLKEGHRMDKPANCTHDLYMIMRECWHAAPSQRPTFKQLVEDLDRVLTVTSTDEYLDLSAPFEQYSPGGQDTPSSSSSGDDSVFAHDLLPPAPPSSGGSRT
Procedure, shortened: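 Read-out is TR-FRET, with the 520 nm/495 nm emission ratio normalised to DMSO (max) and enzyme-free (min) controls. Enzyme was the FGFR3 cytoplasmic domain, residues 436-806. EDTA (10 mM) stopped the reaction, followed by 60 min at 22 °C before reading.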

[1] = test system: Ba/F3-FGFR3-BAIAP2L1 cells; assay: Inhibition of proliferation activity of Ba/F3-FGFR3-BAIAP2L1 cells (CellTiter-Glo); assay type: cell-based; details: for IC50: Ba/F3-FGFR3-BAIAP2L1 cells, 72 hours, CTG, read-out: IC50 (nM) Ba/F3-FGFR3-BAIAP2L1; for Selectivity (X) FGFR1/FGFR3: ratio of IC50 Ba/F3-BCR-FGFR1 to IC50 Ba/F3-FGFR3-BAIAP2L1
Protocol: as §1, with “Then, 10 µL of each of the serially diluted compounds was transferred to the corresponding experimental wells of a 96-well cell plate, with two replicates for each drug concentration. • ⑤ The 96-well plate with the cells that had been treated with the drugs was placed under the condition of 37°C and 5% CO2 to be further cultured for 72 hours, and then analyzed by CTG. • ⑥ The CTG reagent was melted and the cell plate was equilibrated to room temperature for 30 minutes. • ⑦ 50 µL of the CTG solution was added to each well. • ⑧ The cell plate was shaken on an orbital shaker for 5 minutes to lyse the cells. • ⑨ The cell plate was placed at room temperature for 20 minutes to stabilize the luminescence signal.” left out
as §2, §3

T1 sequence (P11362 398-822): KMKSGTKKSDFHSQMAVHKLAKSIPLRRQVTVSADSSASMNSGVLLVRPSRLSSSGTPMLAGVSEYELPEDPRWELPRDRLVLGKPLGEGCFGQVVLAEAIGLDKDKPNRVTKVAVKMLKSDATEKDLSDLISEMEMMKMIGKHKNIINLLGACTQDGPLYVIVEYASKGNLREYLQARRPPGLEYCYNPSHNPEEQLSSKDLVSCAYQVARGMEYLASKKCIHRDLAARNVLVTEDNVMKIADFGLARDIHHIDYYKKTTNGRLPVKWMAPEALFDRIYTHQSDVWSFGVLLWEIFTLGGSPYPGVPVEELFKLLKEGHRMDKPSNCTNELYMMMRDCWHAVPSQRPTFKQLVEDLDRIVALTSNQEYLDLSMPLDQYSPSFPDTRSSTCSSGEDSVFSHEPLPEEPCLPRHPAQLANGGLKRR

Compound	IC50 (FGFR1)	IC50 (Ba/F3-BCR-FGFR1 cells)	IC50 (FGFR3)	Selectivity (X) FGFR1/FGFR3 (FGFR3)	IC50 [1]	Selectivity (X) FGFR1/FGFR3 [1]
5-(1-((7-fluoro-3-(1-methyl-1H-pyrazol-4-yl)-1H-indazol-5-yl)oxy)ethyl)-6-methylquinoline [Example 100]	10 to 100 nM	1150 nM	1 to 10 nM	A (A represents 1 ≤ multiple X<20)	26.8 nM	–
CC(Oc1ccc2[nH]nc(-c3cnn(C)c3)c2c1)c1cccc2ncnn12 (centres unmarked) [Example 96, 5-(1-((3-(1-methyl-1H-pyrazol-4-yl)-1H-indazol-5-yl)oxy)ethyl)-[1,2,4]triazolo[1,5-a]pyridine]	10 to 100 nM	430 nM	1 to 10 nM	A (A represents 1 ≤ multiple X<20)	11.8 nM	37 X
CC(Oc1ccc2[nH]nc(-c3cnn(C)c3)c2c1)c1cccc2ncc(F)cc12 (centres unmarked) [Example 98, 3-fluoro-5-(1-((3-(1-methyl-1H-pyrazol-4-yl)-1H-indazol-5-yl)oxy)ethyl)qu inoline]	> 100 nM	2140 nM	10 to 100 nM	A (A represents 1 ≤ multiple X<20)	47.6 nM	45 X
CC(Oc1ccc2[nH]nc(-c3cnn(C)c3)c2c1)c1cccc2ncncc12 (centres unmarked) [Example 99, 5-(1-((3-(1-methyl-1H-pyrazol-4-yl)-1H-indazol-5-yl)oxy)ethyl)qu inazoline]	> 100 nM	1760 nM	10 to 100 nM	A (A represents 1 ≤ multiple X<20)	41.8 nM	42 X
